# Experimental data reported in publication PMC9963656, “Synthesis, Molecular Docking, and Bioactivity Study of Novel Hybrid Benzimidazole Urea Derivatives: A Promising α-Amylase and α-Glucosidase Inhibitor Candidate with Antioxidant Activity” (Pharmaceutics, 2023).
# Assays:
# [1] = Ferric reducing antioxidant power (FRAP) assay; settings: for FRAP: ferric reducing antioxidant power: compound 1 mM, 593 nm
# Method: The FRAP reagent is a 1:1:10 mixture of TPTZ (2,4,6-Tris(2-pyridyl)-S-triazine, 10 mM prepared in 40 mM HCl), FeCl3.6H2O (20 mM), and acetate buffer (300 mM, pH 3.6). Accurately, 0.1 mL of the samples (final concentration 1 mM in DMSO) was thoroughly mixed with 2 mL of the FRAP reagent and incubated at room temperature for 30 min. At 593 nm, the absorbance was measured. The compounds FRAP activity was calculated using the FRAP-trolox calibration curve in trolox equivalent.
# α-glucosidase = biological target: T1, α-glucosidase (Saccharomyces cerevisiae, UniProt P53341); experiment: biochemical; settings: triplicate values; read-out: α-Glucosidase Inhibition IC50 ± SEM
# T1 construct: purchased Sigma-Aldrich
# T1 sequence (P53341 whole entry): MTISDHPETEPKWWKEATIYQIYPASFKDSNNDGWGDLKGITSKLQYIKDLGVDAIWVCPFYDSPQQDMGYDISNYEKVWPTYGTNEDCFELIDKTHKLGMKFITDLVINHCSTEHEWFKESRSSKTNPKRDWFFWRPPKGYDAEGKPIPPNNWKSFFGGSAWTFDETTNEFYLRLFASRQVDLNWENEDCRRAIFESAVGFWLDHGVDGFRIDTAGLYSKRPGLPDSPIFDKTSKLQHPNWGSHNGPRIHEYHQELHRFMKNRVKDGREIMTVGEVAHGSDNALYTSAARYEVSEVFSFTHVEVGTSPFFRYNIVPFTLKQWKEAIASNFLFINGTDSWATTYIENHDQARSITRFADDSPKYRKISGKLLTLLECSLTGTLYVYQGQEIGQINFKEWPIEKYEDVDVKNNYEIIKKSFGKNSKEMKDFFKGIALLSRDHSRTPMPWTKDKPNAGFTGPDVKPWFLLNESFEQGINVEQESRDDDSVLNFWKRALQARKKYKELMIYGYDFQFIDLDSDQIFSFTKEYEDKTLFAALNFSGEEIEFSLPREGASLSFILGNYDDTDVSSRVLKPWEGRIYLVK
# Method: The inhibition of α-glucosidase activity was measured using a modified version of a previously published method. In 100 mL of phosphate buffer (pH 6.8) containing 200 mg of bovine serum albumin, one milligram of α-glucosidase (Saccharomyces cerevisiae, Sigma-Aldrich, St. Louis, MO, USA) was dissolved (Merck, Darmstadt, Germany). The reaction mixture was made up of 10 μL of sample at various concentrations ([…]), 490 μL of phosphate buffer pH 6.8, and 250 μL of 5 mM p-nitrophenyl-D-glucopyranoside (Sigma-Aldrich, Buchs, Switzerland). After a 5 min preincubation at 37 °C, 250 μL of α-glucosidase (0.15 unit/mL) was added and incubated at 37 °C for 15 min. The reaction was stopped by adding 2000 μL Na2CO3 200 mM. α-glucosidase activity was measured using a spectrophotometer UV-Vis (Shimadzu 265, Kyoto, Japan) at 400 nm by measuring the amount of p-nitrophenol released from p-NPG. […] Equation (1) was used to calculate the percentage of inhibition.
# [2] = Iron chelating activity assay (MCA); settings: for MCA: metal chelating activity: compound 1 mM, 562 nm
# Method: Using the method of Zengin et al. with modification, the ability of compounds to chelate iron compared to the EDTA was estimated. To inchoate the color, a compound solution in DMSO ([…] a final concentration of 1 mM) plus ferrous chloride (25 μL, 2 mM, FeCl2) was added to 100 μL of ferrozine. At 562 nm, the absorbance of the mixture was measured in comparison to a blank (prepared similarly to a test without ferrozine). The chelating activity of the extract was calculated in equivalents to the EDTA standard calibration curve.
# α-amylase = α-amylase (Aspergillus oryzae, UniProt P0C1B3); experiment: biochemical; settings: triplicate values; read-out: α-Amylase Inhibition IC50 ± SEM
# Method: The α-amylase inhibition activity was measured using the previously reported methodologies. An amount of 500 μL of test sample ([…]) and 500 μL of […] α-amylase (source: Aspergillus oryzae) solution (0.5 mg/mL) in […] phosphate buffer (pH 6.9) were incubated for 10 min at 25 °C. Following pre-incubation, 500 μL of 1% starch solution in 0.02 M sodium phosphate buffer (pH 6.9) was added and incubated for 10 min at 25 °C. An amount of 1 mL of dinitro salicylic acid color reagent was used to stop the reaction. The tubes were then placed in boiling water for 5 min before being cooled to room temperature. After diluting the solutions with 10 mL of distilled water, the absorbance at 540 nm was measured. […] The percentage of enzyme inhibition was calculated using the following equation:(1) % of Enzyme Inhibition=(Absorbance of control – Absorbance of compound)×100 /Absorbance of control
# [3] = Total antioxidant capacity (TAC), molybdate reduction; settings: for TAC: total antioxidant capacity: compound 1 mM in DMSO, 695 nm
# Method: An amount of 2 mL of freshly prepared 0.6 M solution of sulfuric acid, a solution of ammonium molybdate (4 mM), and a buffer solution of sodium phosphate (28 mM) were placed in small glass test tubes and thoroughly mixed with the compound solution (200 μL in DMSO with a concentration of 1 mM). An amount of 2 mL of molybdate reagent was mixed with 200 μL of distilled water to make a blank test. The cylinders were warmed to 85 °C for 1.5 h before cooling to ambient temperature. At 695 nm, the produced blue color was assessed with a UV spectrophotometer, with the blank reading having to serve as the auto-zero point. The TAC results were calculated using the Trolox standard calibration curve.
# [4] = DPPH scavenging activity (DPPH-SA); settings: for DPPH-SA: 2,2-diphenyl-1-picrylhydrazyl scavenging activity: compound 1 mM, 517 nm
# Method: The ability of the compounds to scavenge free radicals was tested against DPPH-stable free radicals. The degree of reduction in the DPPH violet color is directly proportional to the scavenging efficacy of the compounds. According to the method of Aroua et al., 1 mL of the DMSO solutions of the tested compounds (1 mM final concentration) was thoroughly mixed in test tubes with the DPPH solution prepared at the concentration of 300 µM in methanol. After 30 min at room temperature, the reduction in DPPH-violet color was measured at 517 nm. The DPPH-SA of the compounds was calculated using the DPPH-Trolox calibration curve.
SMILES,FRAP: ferric reducing antioxidant power [1],IC50 (α-glucosidase) [µM],MCA: metal chelating activity [2],IC50 (α-amylase) [µM],TAC: total antioxidant capacity [3],"DPPH-SA: 2,2-diphenyl-1-picrylhydrazyl scavenging activity [4]",melting point [°C],"total antioxidant capacity (TAC), molybdenum (VI) reducing activity [3] [mM trolox equivalents]",ferric reducing antioxidant power (FRAP) [1] [mM trolox equivalents],DPPH-SA [4] [mM trolox equivalents],metal chelating activity (MCA) [2] [mM EDTA equivalents]
"O=C(Nc1ccccc1)Nc1ccccc1-c1nc2ccccc2[nH]1 [3a, 1-(2-(1H-benzo[d]imidazol-2-yl)phenyl)-3-phenylurea]",6.53 ± 0.03 trolox equivalent per 1 mM of the compounds,42.97 ± 0.19,1.62 ± 0.10 EDTA equivalent per 1 mM of the compounds,40.7 ± 0.06,1.33 ± 0.46 trolox equivalent per 1 mM of the compounds,1.17 ± 0.07 trolox equivalent per 1 mM of the compounds,129 to 131,,,,
"O=C(Nc1ccccc1-c1nc2ccccc2[nH]1)Nc1cccc2ccccc12 [3b, 1-(2-(1H-benzo[d]imidazol-2-yl)phenyl)-3-(naphthalen-1-yl)urea]",9.25 ± 0.20 trolox equivalent per 1 mM of the compounds,45.97 ± 0.19,1.55 ± 0.07 EDTA equivalent per 1 mM of the compounds,41.7 ± 0.06,5.16 ± 0.69 trolox equivalent per 1 mM of the compounds,0.96 ± 0.06 trolox equivalent per 1 mM of the compounds,203 to 205,5.16 ± 0.69,,,
"COc1ccc(NC(=O)Nc2ccccc2-c2nc3ccccc3[nH]2)cc1 [3c, 1-(2-(1H-benzo[d]imidazol-2-yl)phenyl)-3-(4-methoxyphenyl)urea]",8.65 ± 0.29 trolox equivalent per 1 mM of the compounds,17.47 ± 0.03,1.55 ± 0.22 EDTA equivalent per 1 mM of the compounds,18.7 ± 0.23,4.43 ± 0.53 trolox equivalent per 1 mM of the compounds,1.61 ± 0.02 trolox equivalent per 1 mM of the compounds,197 to 199,4.43 ± 0.53,8.65 ± 0.29,,
"O=C(Nc1ccccc1-c1nc2ccccc2[nH]1)NC1CCCCC1 [3d, 1-(2-(1H-benzo[d]imidazol-2-yl)phenyl)-3-cyclohexylurea]",5.67 ± 0.69 trolox equivalent per 1 mM of the compounds,27.47 ± 0.13,1.46 ± 0.10 EDTA equivalent per 1 mM of the compounds,25.65 ± 0.03,2.47 ± 0.42 trolox equivalent per 1 mM of the compounds,2.89 ± 1.07 trolox equivalent per 1 mM of the compounds,330 to 332,,,2.89 ± 1.07,
"CC(C)NC(=O)Nc1ccccc1-c1nc2ccccc2[nH]1 [3e, 1-(2-(1H-benzo[d]imidazol-2-yl)phenyl)-3-isopropylurea]",2.75 ± 0.15 trolox equivalent per 1 mM of the compounds,21.97 ± 0.19,1.47 ± 0.09 EDTA equivalent per 1 mM of the compounds,20.7 ± 0.06,2.52 ± 0.80 trolox equivalent per 1 mM of the compounds,1.70 ± 0.01 trolox equivalent per 1 mM of the compounds,196 to 198,,,,
"CCCCNC(=O)Nc1ccccc1-c1nc2ccccc2[nH]1 [3f, 1-(2-(1H-benzo[d]imidazol-2-yl)phenyl)-3-butylurea]",5.99 ± 0.02 trolox equivalent per 1 mM of the compounds,29.01 ± 0.12,1.40 ± 0.07 EDTA equivalent per 1 mM of the compounds,28.33 ± 0.02,8.50 ± 0.87 trolox equivalent per 1 mM of the compounds,1.55 ± 0.03 trolox equivalent per 1 mM of the compounds,196 to 198,8.50 ± 0.87,,,
"O=C(Nc1ccc(NC(=O)Nc2ccccc2-c2nc3ccccc3[nH]2)cc1)Nc1ccccc1-c1nc2ccccc2[nH]1 [3g, 1,1’-(1,4-phenylene)bis(3-(2-(1H-benzo[d]imidazol-2-yl)phenyl)urea)]",16.12 ± 0.29 trolox equivalent per 1 mM of the compounds,23.01 ± 0.12,1.36 ± 0.09 EDTA equivalent per 1 mM of the compounds,22.33 ± 0.12,10.06 ± 1.51 trolox equivalent per 1 mM of the compounds,3.86 ± 0.04 trolox equivalent per 1 mM of the compounds,190 to 192,10.06 ± 1.51,16.12 ± 0.29,3.86 ± 0.04,
"O=C(NCC1CCC(CNC(=O)Nc2ccccc2-c2nc3ccccc3[nH]2)CC1)Nc1ccccc1-c1nc2ccccc2[nH]1 (centres unmarked) [3h, 1,1′-(cyclohexane-1,4-diylbis(methylene))bis(3-(2-(1H-benzo[d]imidazol-2-yl)phenyl)urea)]",6.79 ± 0.50 trolox equivalent per 1 mM of the compounds,44.99 ± 0.09,2.95 ± 0.21 EDTA equivalent per 1 mM of the compounds,43.04 ± 0.02,2.25 ± 0.65 trolox equivalent per 1 mM of the compounds,1.09 ± 0.03 trolox equivalent per 1 mM of the compounds,190 to 192,,,,2.95 ± 0.21
